Patent US20250017206A1, “METHODS FOR PREVENTING OR REDUCING BACTERIAL INFECTION OF PLANT SEEDS” (priority 2022, published 2025)
Entries after “also recorded” stand apart in the source; their conditions may differ.

How the values were obtained:
[1] = tested on: Acidovorax citrulli; assay: A. citrulli growth on LB agar growth medium containing tea, extracts or compounds; format: cell-based; conditions: for inhibition of A. citrulli (summary): compound alone in culture
Experimental: A. citrulli growth on LB agar medium was assessed after treatment with commercial brands of black and green teas and their constituent compounds to determine inhibitory effects. Dried loose tea leaves were boiled in distilled water, strained, and liquid added to LB agar growth medium to assess concentration effects. Five grams of loose-leaf tea was autoclaved in 200 mL distilled water for 25 minutes in the liquid cycle. After autoclaving, the tea was cooled to room temperature and filtered using Whatman #1 filter paper. The filtered tea was adjusted by spectrophotometry (DU 800, Beckman Coulter) to 4.0, 3.0, 2.0, 1.0, and 0.5 at OD390.
Luria Broth (LB) agar growth medium was prepared by mixing 10 grams of tryptone, 5 grams of yeast extract, and 10 grams of sodium chloride, and 15 grams of Bacto™ Agar Solidifying Agent (BD Diagnostics) in 1 liter of distilled water (pH: 7.5) before autoclaving. Collected bacteria were resuspended in autoclave-sterilized 10 mM MgCl2, and adjusted to 1.0, 0.5, 0.1, 0.01, and 0.001 OD600 spectrophotometry.
1 mL of each standard compound was added to 10 mL of LB agar growth medium.
Growth curve on growth medium containing inhibitory extracts and compounds to test whether Acidovorax citrulli could grow in the presence of green and black teas and some of their constituents, growth analysis was conducted in Petri dishes on solid LB agar containing tea or its extracts to quantitate bacterial growth inhibition. We also wanted to see whether tea and its constituents affected antibiotic resistance by comparing growth on both LB agar and Rifampicin containing LB agar. […] For the second stage, effects were verified by blotting 20 μL of inoculum with 9 1:10 serial dilutions to be able to count bacterial colonies. After growth medium solidified, 5 μL of bacterial inoculum adjusted at OD600: to 1.0, 0.5, 0.1, 0.01, or 0.001 (at first stage) and 20 μL of bacterial inoculum adjusted to OD600: 10^0, 10^−1, 10^−2, 10^−3, 10^−4, 10^−5, 10^−6, 10^−7, 10^−8, 10^−9 were blotted on the LB agar growth medium, containing tea samples or other extracts (1:10 mL). The Petri dishes inoculated with bacteria were incubated at 28° C. for 72 h in dark. Autoclaved distilled water was added to growth medium in a separate replicate with 5 μL of 10 mM MgCl2 and bacteria as a negative control. In order to check if additional distilled water affected bacterial growth, growth on LB medium with and without water was compared. Results were compared by colonies. When colonies could not be separated, bacterial growth was scored between 1 and 0 depending on the amount of growth on the surface of the blot.

[2] = tested on: A. citrulli strain AAC00-1; conditions: components of cinnamon oil; Choi et al. (2016); cited from earlier work

In the case of `O=C(O[C@@H]1Cc2c(O)cc(O)cc2O[C@@H]1c1ccc(O)c(O)c1)c1cc(O)c(O)c(O)c1` [ECG, epicatechin gallate, reference compound], the “bacterial growth at 0.5 mM” value ([1]; 0.5 mM, AA000-1, maximum bacterial concentration OD600 0.01) is reported as “inhibited bacterial growth” and the “bacterial growth at 1.5 mM” value ([1]; AAC00-1, 1.5 mM, bacterial OD600 1.0) is reported as “completely inhibitory; also recorded: inhibited all bacterial growth”.

With `Oc1cc(O)c2c(c1)O[C@H](c1cc(O)c(O)c(O)c1)[C@H](O)C2` [EGC, epigallocatechin, reference compound] the “bacterial growth at 1 mM EGC” value ([1]; 1 mM, bacteria OD600 0.1 and 0.01) was “efficient inhibitor; also recorded: inhibited bacterial growth on 0.1 dilution of bacteria”, the “bacterial growth at 0.5-1-1.5 mM EGC” value ([1]; AAC00-1 OD600 1.0-0.001, 0.5-1-1.5 mM) was “did not show inhibitory effects; also recorded: showed no inhibition” and the “minimum concentration required for inhibition” value ([1]; bacterial concentration OD600 0.001, AAC00-1) was 0.5 mM.

In the case of `O=Cc1ccccc1` [benzaldehyde], the “antibacterial activities against strain AAC00-1” value [2] is given as “exhibited antibacterial activities”.

For `Cn1c(=O)c2c(ncn2C)n(C)c1=O` [caffeine, reference compound], the “inhibition of A. citrulli (summary)” value [1] was “not inhibitory”.

For `O=CC=Cc1ccccc1` [cinnamaldehyde], the “antibacterial activities against strain AAC00-1” value [2] is listed as “exhibited antibacterial activities”.

With catechin the “bacterial colony growth at 10 mM catechin” value ([1]; AAC00-1, 0.1, 1, 10 mM compared, only 10 mM inhibitory, with or without rifampicin) was “inhibitory; also recorded: inhibited bacterial growth”, the “effect of antibiotic presence on bacterial colony growth inhibition by catechin” value ([1]; AAC00-1, catechin 0.1, 1, 10 mM, with or without rifampicin 100 μg/mL) was “No difference” and the “bacterial growth at 5-10-15 mM” value ([1]; AAC00-1 OD600 1.0-0.001, 5-10-15 mM) was “inhibited all bacterial growth”. For the same compound, the “inhibition of A. citrulli (summary)” value [1] was “strongly inhibitory”, the “bacterial colony growth at 1 mM” value ([1]; final concentration 1 mM in LB agar with rifampicin 100 μg/mL, M6, AAC00-1, aacI, aacR, OD600 1.0-0.001) was “inhibited A. citrulli; also recorded: inhibited some lower density colonies of bacteria” and the “bacterial colony growth at 10 mM” value ([1]; final concentration 10 mM in LB agar with rifampicin 100 μg/mL, M6, AAC00-1, aacI, aacR, OD600 1.0-0.001) was “inhibited A. citrulli; also recorded: completely inhibited bacterial growth; also recorded: inhibited growth of all bacterial strains”. For the same compound, the “less A. citrulli growth in catechin treatments compared to caffeine treatment” value ([1]; overall, 3-Way ANOVA, 95% significance level) was ~25% and the “inhibition of A. citrulli compared with black tea and caffeine” value ([1]; preliminary, data not shown) was “greater than black tea and caffeine”.
